Laboratory results: ChEMBL document CHEMBL5291721, “A preclinical secondary pharmacology resource illuminates target-adverse drug reaction associations of marketed drugs” (Nat Commun, 2023)

Key:
[1] = biological target: T1, Alpha-1A adrenergic receptor (Homo sapiens, UniProt P35348); type: functional, cell-based
T1 sequence (P35348 whole entry): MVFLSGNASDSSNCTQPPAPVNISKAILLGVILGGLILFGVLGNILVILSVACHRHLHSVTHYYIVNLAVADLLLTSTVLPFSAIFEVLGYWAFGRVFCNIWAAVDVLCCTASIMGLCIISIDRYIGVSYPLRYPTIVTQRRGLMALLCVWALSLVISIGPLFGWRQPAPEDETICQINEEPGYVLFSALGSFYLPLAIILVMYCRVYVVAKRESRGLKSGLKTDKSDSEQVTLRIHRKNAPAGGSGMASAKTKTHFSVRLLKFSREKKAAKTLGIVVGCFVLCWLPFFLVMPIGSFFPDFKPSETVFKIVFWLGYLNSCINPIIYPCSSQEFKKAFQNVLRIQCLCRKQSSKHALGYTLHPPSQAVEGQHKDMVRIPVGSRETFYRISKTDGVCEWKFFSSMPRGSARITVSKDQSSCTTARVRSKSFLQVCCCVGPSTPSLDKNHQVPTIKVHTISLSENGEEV

D(3) dopamine receptor = D(3) dopamine receptor (Homo sapiens, UniProt P35462)
Sequence of D(3) dopamine receptor (P35462 whole entry): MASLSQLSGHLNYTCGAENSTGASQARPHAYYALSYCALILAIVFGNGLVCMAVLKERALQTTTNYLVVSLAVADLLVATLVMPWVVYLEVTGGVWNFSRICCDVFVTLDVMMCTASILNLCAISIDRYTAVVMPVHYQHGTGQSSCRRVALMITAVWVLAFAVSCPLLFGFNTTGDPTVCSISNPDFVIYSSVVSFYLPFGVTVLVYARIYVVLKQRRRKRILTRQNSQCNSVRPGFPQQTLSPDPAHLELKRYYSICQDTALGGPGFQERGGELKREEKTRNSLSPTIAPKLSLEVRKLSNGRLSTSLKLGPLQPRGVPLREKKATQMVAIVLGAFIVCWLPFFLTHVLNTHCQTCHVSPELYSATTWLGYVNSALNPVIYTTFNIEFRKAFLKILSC

Estrogen receptor [2] = biological target: T2, Estrogen receptor (Homo sapiens, UniProt P03372)
T2 sequence (P03372 whole entry): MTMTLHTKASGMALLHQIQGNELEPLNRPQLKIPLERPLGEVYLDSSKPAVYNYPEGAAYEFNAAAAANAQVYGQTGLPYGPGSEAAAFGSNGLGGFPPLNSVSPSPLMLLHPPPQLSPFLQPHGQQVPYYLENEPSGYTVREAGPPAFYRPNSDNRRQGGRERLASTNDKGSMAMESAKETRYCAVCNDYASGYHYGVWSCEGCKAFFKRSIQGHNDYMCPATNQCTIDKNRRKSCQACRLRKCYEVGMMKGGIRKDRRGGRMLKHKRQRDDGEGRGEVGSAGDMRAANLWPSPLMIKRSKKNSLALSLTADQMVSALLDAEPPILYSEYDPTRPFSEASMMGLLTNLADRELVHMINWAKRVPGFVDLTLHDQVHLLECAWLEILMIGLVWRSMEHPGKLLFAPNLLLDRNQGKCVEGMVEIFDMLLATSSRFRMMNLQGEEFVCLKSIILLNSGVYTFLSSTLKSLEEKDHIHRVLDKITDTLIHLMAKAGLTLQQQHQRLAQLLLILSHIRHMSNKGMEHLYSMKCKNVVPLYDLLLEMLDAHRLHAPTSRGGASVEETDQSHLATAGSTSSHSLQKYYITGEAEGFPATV

Mu-type opioid receptor [3] = biological target: T3, Mu-type opioid receptor (Homo sapiens, UniProt P35372)
T3 sequence (P35372 whole entry): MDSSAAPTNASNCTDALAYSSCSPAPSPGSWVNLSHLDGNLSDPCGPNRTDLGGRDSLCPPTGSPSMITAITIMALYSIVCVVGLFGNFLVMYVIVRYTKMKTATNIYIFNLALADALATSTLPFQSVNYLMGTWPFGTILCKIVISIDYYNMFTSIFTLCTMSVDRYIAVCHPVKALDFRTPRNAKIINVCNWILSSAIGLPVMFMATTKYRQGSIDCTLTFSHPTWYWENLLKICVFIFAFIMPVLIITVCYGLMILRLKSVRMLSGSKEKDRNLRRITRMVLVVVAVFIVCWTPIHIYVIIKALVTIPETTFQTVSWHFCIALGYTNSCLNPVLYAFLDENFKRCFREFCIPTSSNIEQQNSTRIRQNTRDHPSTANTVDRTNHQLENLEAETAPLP

[4] = biological target: T4, Alpha-2C adrenergic receptor (Homo sapiens, UniProt P18825); type: functional
T4 sequence (P18825 whole entry): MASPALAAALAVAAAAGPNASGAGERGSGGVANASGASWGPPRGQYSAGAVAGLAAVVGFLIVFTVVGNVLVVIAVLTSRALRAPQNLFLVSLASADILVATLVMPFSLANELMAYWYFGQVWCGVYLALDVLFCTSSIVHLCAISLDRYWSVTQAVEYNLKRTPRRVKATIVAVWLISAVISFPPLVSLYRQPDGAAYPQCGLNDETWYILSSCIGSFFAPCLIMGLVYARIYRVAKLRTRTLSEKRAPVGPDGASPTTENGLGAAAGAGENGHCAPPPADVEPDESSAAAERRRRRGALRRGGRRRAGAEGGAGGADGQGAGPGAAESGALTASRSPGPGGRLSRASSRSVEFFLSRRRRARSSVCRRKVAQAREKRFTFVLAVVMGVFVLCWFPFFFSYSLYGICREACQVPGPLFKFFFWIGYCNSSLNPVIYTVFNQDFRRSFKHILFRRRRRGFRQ

Cannabinoid receptor 1 [5] = biological target: T5, Cannabinoid receptor 1 (Homo sapiens, UniProt P21554); type: functional, cell-based
T5 sequence (P21554 whole entry): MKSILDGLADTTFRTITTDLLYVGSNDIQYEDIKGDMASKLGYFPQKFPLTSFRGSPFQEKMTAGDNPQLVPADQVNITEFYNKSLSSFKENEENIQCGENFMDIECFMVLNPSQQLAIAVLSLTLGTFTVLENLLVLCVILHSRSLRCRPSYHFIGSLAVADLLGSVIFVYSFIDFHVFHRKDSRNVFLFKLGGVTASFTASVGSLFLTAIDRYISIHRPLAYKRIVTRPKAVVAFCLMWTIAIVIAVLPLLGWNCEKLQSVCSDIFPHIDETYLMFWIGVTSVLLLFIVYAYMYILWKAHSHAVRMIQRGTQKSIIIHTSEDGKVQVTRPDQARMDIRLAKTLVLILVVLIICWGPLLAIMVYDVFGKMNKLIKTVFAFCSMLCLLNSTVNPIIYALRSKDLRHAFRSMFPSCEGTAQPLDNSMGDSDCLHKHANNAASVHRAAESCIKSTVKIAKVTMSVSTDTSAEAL

[6] = biological target: T6, 5-hydroxytryptamine receptor 2B (Homo sapiens, UniProt P41595); type: functional, cell-based
T6 sequence (P41595 whole entry): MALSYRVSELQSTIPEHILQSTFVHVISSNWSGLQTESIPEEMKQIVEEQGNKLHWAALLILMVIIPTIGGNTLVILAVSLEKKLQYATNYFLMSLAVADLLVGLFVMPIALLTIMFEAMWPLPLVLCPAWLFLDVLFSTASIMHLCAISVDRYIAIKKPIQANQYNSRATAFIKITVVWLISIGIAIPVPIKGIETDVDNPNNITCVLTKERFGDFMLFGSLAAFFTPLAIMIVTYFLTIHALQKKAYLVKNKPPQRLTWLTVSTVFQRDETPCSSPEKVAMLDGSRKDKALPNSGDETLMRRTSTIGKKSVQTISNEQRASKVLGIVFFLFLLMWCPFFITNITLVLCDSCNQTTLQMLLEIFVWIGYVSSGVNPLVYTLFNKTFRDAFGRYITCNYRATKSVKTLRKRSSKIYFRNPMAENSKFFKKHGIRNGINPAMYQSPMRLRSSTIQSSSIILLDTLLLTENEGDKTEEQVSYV

Estrogen receptor [7] = biological target: T2, Estrogen receptor; remark: listed apart in the source
B2 bradykinin receptor = biological target: T7, B2 bradykinin receptor (Homo sapiens, UniProt P30411)
T7 sequence (P30411 whole entry): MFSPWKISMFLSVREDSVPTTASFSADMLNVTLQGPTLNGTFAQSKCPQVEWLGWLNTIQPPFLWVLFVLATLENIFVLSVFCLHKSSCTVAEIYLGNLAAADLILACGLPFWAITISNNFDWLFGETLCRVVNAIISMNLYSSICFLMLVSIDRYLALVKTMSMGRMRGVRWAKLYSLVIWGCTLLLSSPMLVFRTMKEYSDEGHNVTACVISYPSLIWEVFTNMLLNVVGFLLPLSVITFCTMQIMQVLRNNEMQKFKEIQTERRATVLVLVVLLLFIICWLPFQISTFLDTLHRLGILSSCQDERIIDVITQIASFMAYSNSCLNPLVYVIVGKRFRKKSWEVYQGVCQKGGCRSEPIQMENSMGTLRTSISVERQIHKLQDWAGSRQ

[8] = biological target: T6, 5-hydroxytryptamine receptor 2B; type: functional, cell-based; remark: listed apart in the source
Cannabinoid receptor 1 [9] = biological target: T5, Cannabinoid receptor 1; type: functional, cell-based; remark: listed apart in the source
Melanocortin receptor 3 = Melanocortin receptor 3 (Homo sapiens, UniProt P41968)
Sequence of Melanocortin receptor 3 (P41968 whole entry): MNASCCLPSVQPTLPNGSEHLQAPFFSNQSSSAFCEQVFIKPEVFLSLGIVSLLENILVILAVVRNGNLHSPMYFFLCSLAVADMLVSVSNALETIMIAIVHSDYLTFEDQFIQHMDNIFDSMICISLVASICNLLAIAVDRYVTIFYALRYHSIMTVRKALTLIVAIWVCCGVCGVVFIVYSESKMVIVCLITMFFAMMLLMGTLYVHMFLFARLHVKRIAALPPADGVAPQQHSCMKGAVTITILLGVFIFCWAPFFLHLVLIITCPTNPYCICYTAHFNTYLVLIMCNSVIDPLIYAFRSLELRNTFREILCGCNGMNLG

Mu-type opioid receptor [10] = biological target: T3, Mu-type opioid receptor; assay: biochemical; type: functional
Adenosine receptor A3 = biological target: T8, Adenosine receptor A3 (Homo sapiens, UniProt P0DMS8)
T8 sequence (P0DMS8 whole entry): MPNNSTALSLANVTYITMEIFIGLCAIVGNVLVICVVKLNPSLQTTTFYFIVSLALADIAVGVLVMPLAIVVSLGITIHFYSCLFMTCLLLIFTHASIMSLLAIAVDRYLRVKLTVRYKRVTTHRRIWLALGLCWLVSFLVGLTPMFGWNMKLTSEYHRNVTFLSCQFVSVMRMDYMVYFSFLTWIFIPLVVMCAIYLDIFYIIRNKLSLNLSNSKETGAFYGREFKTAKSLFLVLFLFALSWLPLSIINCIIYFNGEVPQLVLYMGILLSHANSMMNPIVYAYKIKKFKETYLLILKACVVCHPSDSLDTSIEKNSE
Note: assay procedure not described here.

Structure (SMILES)	AC50 [4]	AC50 (Cannabinoid receptor 1 [5])	AC50 [6]	AC50 (Estrogen receptor [7])	AC50 (B2 bradykinin receptor)	AC50 [8]	AC50 (Cannabinoid receptor 1 [9])	AC50 (Melanocortin receptor 3)	AC50 (Mu-type opioid receptor [10])	AC50 [1]	AC50 (D(3) dopamine receptor)	AC50 (Estrogen receptor [2])	AC50 (Mu-type opioid receptor [3])	AC50 (Adenosine receptor A3)
COc1cc(C)c2c(Oc3cccc(C(F)(F)F)c3)c(OC)cc(NC(C)CCCN)c2n1 (stereo unspecified) [TAFENOQUINE]	–	–	–	–	–	–	–	–	–	> 3 µM	2.57 µM	18.4 µM	20.6 µM	–
O=C(CCC/C=C\C[C@@H]1[C@@H](CC[C@@H](O)CCc2ccccc2)[C@H](O)C[C@@H]1O)OCCCCO[N+](=O)[O-] [LATANOPROSTENE BUNOD]	–	–	–	–	–	–	–	–	–	> 30 µM	> 30 µM	> 30 µM	> 30 µM	–
COc1cccc(C(=O)CCN[C@@H](C)[C@H](O)c2ccccc2)c1 [OXYFEDRINE]	–	–	–	–	–	–	–	–	–	> 30 µM	0.382 µM	–	2.7 µM	> 30 µM
C[N+](C)(C)CCOP(=O)([O-])OC[C@H](O)CO	> 30 µM	> 30 µM	> 30 µM	> 30 µM	> 30 µM	> 30 µM	> 30 µM	> 30 µM	> 30 µM	–	–	–	–	–
Cc1cn([C@H]2O[C@@H](CO)[C@H](O)[C@H]2F)c(=O)[nH]c1=O [CLEVUDINE]	–	–	–	–	–	–	–	–	–	> 30 µM	> 30 µM	–	> 30 µM	> 30 µM

Further lines, with some results ahead:

AC50 [4]	AC50 (Cannabinoid receptor 1 [5])	AC50 [6]	AC50 (Estrogen receptor [7])	AC50 (B2 bradykinin receptor)	AC50 [8]	AC50 (Cannabinoid receptor 1 [9])	AC50 (Melanocortin receptor 3)	AC50 (Mu-type opioid receptor [10])	Structure (SMILES)	AC50 [1]	AC50 (D(3) dopamine receptor)	AC50 (Estrogen receptor [2])	AC50 (Mu-type opioid receptor [3])	AC50 (Adenosine receptor A3)
> 30 µM	> 30 µM	> 30 µM	> 30 µM	> 30 µM	> 30 µM	> 30 µM	> 30 µM	> 30 µM	OC[C@H]1O[C@@H](n2cnc3c2NC=NC[C@H]3O)C[C@@H]1O [PENTOSTATIN]	–	–	–	–	–
11 µM	> 30 µM	–	> 30 µM	> 30 µM	3.67 µM	> 30 µM	> 30 µM	> 30 µM	CCCN1CC(NS(=O)(=O)N(CC)CC)CC2Cc3c(O)cccc3CC21 (stereo unspecified) [QUINAGOLIDE]	–	–	–	–	–
> 30 µM	> 30 µM	> 30 µM	> 1 µM	> 30 µM	> 30 µM	26 µM	> 30 µM	> 30 µM	COC(=O)C1=C(C)NC(C)=C(C(=O)OCCN2CCN(C(c3ccccc3)c3ccccc3)CC2)C1c1cccc([N+](=O)[O-])c1 (stereo unspecified) [MANIDIPINE 6300]	–	–	–	–	–
> 30 µM	> 30 µM	> 30 µM	> 30 µM	> 30 µM	> 30 µM	> 30 µM	28 µM	> 30 µM	CN(C)C/C=C/C(=O)Nc1cc2c(Nc3ccc(F)c(Cl)c3)ncnc2cc1O[C@H]1CCOC1 [AFATINIB]	–	–	–	–	–
12 µM	> 30 µM	> 30 µM	> 30 µM	> 30 µM	> 30 µM	> 30 µM	> 30 µM	> 30 µM	CCOC(=O)c1c(CSc2ccccc2)n(C)c2cc(Br)c(O)c(CN(C)C)c12 [UMIFENOVIR]	–	–	–	–	–
2.41 µM	> 30 µM	0.495 µM	–	> 30 µM	> 30 µM	–	> 30 µM	11 µM	CC(Cc1cccc(C(F)(F)F)c1)NCCOC(=O)c1ccccc1 (stereo unspecified) [BENFLUOREX]	–	–	–	–	–
